# Reference: patent US20260232666A1, “COMPOSITIONS AND METHODS FOR INHIBITION OF RAS” (TheRas, Inc., priority 2023, published 2026)
# pIC50: −log10 of the molar value.
# Target: T1, Avi-KRAS G12C (1-169) GppNHp/RAF1 RBD-3×FLAG (52-151) (Homo sapiens, UniProt P01116, G12C)
# T1 construct: Avi-KRAS G12C (1-169) GppNHp; Avi (N)
# Test: Raf1 RBD-KRAS G12C-GppNHp disruption assay (protein:protein interaction HTRF)
# Format: biochemical
# Procedure: Biological Example 2: Disrupting KRAS G12C-Effector Binding (Protein: Protein Interaction HTRF Assay)
# A protein: protein interaction (PPI) Homogeneous Time Resolved Fluorescence (HTRF) assay was used to determine the effectiveness of compounds of the present disclosure in disrupting KRAS G12C protein and effector (RAF1 Ras Binding Domain (RBD)) binding.
# The HTRF assay used the following reagents and proteins: 50 nM Avi-KRAS G12C (1-169) GppNHp/RAF1 RBD-3×FLAG (52-151); 35 nM Avi-PI3K RBD-3×FLAG; Assay Buffer: 50 mM Tris pH 7.5, 100 mM NaCl, 5 mM MgCl2, 0.1% BSA, 0.01% Tween 20, 10% DMSO; Bead Buffer: 50 mM Tris pH 7.5, 0.01% Tween 20; Assay volume: 20 μL (384 well plate-low volume format); and Compound titration: 30-0.02 μM, 3× dilution series.
# The HTRF assay employed the following protocol:
# Compounds were dispensed in assay plate (384-well, Grenier Bio-One #784075) using Echo (model 555) with dose response settings: 200 nL final volume, titration from 100 μM as a 10-point dilution series. KRAS proteins were prepared in assay buffer, and dispensed on plates, 5 μL per well, then incubated for 1 h at room temperature, with 700 rpm shaking. RAF1 RBD were prepared in assay buffer, dispensed onto plates, 5 μL per well, and then incubated for 1 h at room temperature, with 700 rpm shaking. Reagent mix was then prepared and dispensed on plates, 10 μL per well, and then incubated for 1 h at room temperature, with 700 rpm shaking.
# Plates were analyzed on an Envision plate reader using the following setting: Excitation 320 nm, Bandwidth 75 nm; Emission 615 nm, Bandwidth 85 nm; Gain 100%; Flashes 100; Lag 60 μs. Data was reported as percentage of activity, with DMSO as 100%. Data was plotted and analyzed using Prism 8.
# The percent of modification of GppNHp, GTP, or GDP loaded KRAS G12C by MALDI-TOF MS, biochemical Raf1 RBD-KRAS G12C-GppNHp disruption assay IC50, and pERK inhibition IC50 of selected compounds described herein are shown in Table 4. For percent of modification at 15 minutes (MALDI-TOF MS) of GppNHp, GTP, or GDP loaded KRAS G12C: A: percent of modification ≥70%; B: 50≤percent of modification <70%; C: 10%≤percent of modification <50%; D: percent of modification <10%. […] For pERK inhibition in H358 cell assay: A: IC50≤0.1 μM; B: 0.1 μM<IC50≤1 μM; C: IC50>1 μM. Blanks in the table represent that compound was not tested in the indicated assay.
# T1 sequence (P01116 1-169 isoform P01116-2 G12C limits assumed): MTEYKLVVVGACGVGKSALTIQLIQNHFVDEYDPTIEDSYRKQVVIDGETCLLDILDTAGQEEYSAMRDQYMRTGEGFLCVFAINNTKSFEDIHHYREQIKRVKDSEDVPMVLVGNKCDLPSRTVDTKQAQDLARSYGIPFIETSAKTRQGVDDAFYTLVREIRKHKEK
row,pIC50,SMILES
1,> 6.30,"C=CC(=O)N1C[C@H](C)N(c2nc(OC[C@@]34CCCN3C[C@H](F)C4)nc3c(F)c(-c4ccc(F)c5sc(N)c(C#N)c45)c(Cl)cc23)C[C@H]1C (atropisomer, axis not shown) [Compound 102]"
2,4.70 to 5.30,"C=CC(=O)N1C[C@H](C)N(c2nc(OC[C@@]34CCCN3C[C@H](F)C4)nc3c(F)c(-c4ccc(F)c5sc(N)c(C#N)c45)c(Cl)cc23)C[C@H]1C (atropisomer, axis not shown) [Compound 103]"
3,> 6.30,"C=CC(=O)N1CC[C@@H](N(C)c2nc(OC[C@@H]3CC4(CC4)CN3C)nc3c(F)c(-c4ccc(F)c5sc(N)c(C#N)c45)c(C(F)(F)F)cc23)[C@@H]1C (atropisomer, axis not shown) [Compound 111]"
4,> 6.30,"C=CC(=O)N1CC[C@@H](N(CC)c2nc(OC[C@@H]3C[C@@H](F)CN3C)nc3c(F)c(-c4ccc(F)c5sc(N)c(C#N)c45)c(C(F)(F)F)cc23)[C@H]1C (atropisomer, axis not shown) [Compound 113]"
5,4.70 to 5.30,"C=CC(=O)N1CC[C@@H](N(CC)c2nc(OC[C@@H]3C[C@@H](F)CN3C)nc3c(F)c(-c4ccc(F)c5sc(N)c(C#N)c45)c(C(F)(F)F)cc23)[C@H]1C (atropisomer, axis not shown) [Compound 114]"
6,> 6.30,"C=CC(=O)N1CC[C@@H](N(C)c2nc(OC[C@@H]3CCCN3C)nc3c(F)c(-c4ccc(F)c5sc(N)c(C#N)c45)c(Cl)cc23)[C@H]1C (atropisomer, axis not shown) [Compound 118]"
7,4.70 to 5.30,"C=CC(=O)N1CC[C@@H](N(C)c2nc(OC[C@@H]3CCCN3C)nc3c(F)c(-c4ccc(F)c5sc(N)c(C#N)c45)c(Cl)cc23)[C@H]1C (atropisomer, axis not shown) [Compound 119]"
8,> 6.30,"C=CC(=O)N1CC[C@@H](N(CC)c2nc(OC[C@@H]3CC4(CC4)CN3C)nc3c(F)c(-c4ccc(F)c5sc(N)c(C#N)c45)c(Cl)cc23)[C@H]1C (atropisomer, axis not shown) [Compound 120]"
9,4.70 to 5.30,"C=CC(=O)N1CC[C@@H](N(CC)c2nc(OC[C@@H]3CC4(CC4)CN3C)nc3c(F)c(-c4ccc(F)c5sc(N)c(C#N)c45)c(Cl)cc23)[C@H]1C (atropisomer, axis not shown) [Compound 121]"
10,> 6.30,"C=CC(=O)N1CC[C@@H](N(C)c2nc(OC[C@@H]3CCCN3C)nc3c(F)c(-c4ccc(F)c5sc(N)c(C#N)c45)c(C(F)(F)F)cc23)[C@H]1C (atropisomer, axis not shown) [Compound 131]"
11,4.70 to 5.30,"C=CC(=O)N1CC[C@@H](N(C)c2nc(OC[C@@H]3CCCN3C)nc3c(F)c(-c4ccc(F)c5sc(N)c(C#N)c45)c(C(F)(F)F)cc23)[C@H]1C (atropisomer, axis not shown) [Compound 132]"
12,> 6.30,"C=CC(=O)N1CC[C@H](N(CC)c2nc(OC[C@@]34CCCN3C[C@H](F)C4)nc3c(F)c(-c4ccc(F)c5sc(N)c(C#N)c45)c(C(F)(F)F)cc23)C1 (atropisomer, axis not shown) [Compound 171]"
13,> 6.30,"C=CC(=O)N1C[C@H](N(C)c2nc(OC[C@@]34CCCN3C[C@H](F)C4)nc3c(F)c(-c4ccc(F)c5sc(N)c(C#N)c45)c(C(F)(F)F)cc23)C[C@H]1C (atropisomer, axis not shown) [Compound 176]"
14,5.30 to 6.30,"C=CC(=O)N1C[C@H](N(C)c2nc(OC[C@@]34CCCN3C[C@H](F)C4)nc3c(F)c(-c4ccc(F)c5sc(N)c(C#N)c45)c(C(F)(F)F)cc23)C[C@H]1C (atropisomer, axis not shown) [Compound 177]"
15,> 6.30,"C=CC(=O)N1CC[C@@H](N(CC)c2nc(OC[C@@H]3C[C@@H](OC)CN3C)nc3c(F)c(-c4ccc(F)c5sc(N)c(C#N)c45)c(C(F)(F)F)cc23)[C@H]1C (single isomer, unassigned) [Compound 116]"
16,4.70 to 5.30,"C=CC(=O)N1CC[C@@H](N(CC)c2nc(OC[C@@H]3C[C@@H](OC)CN3C)nc3c(F)c(-c4ccc(F)c5sc(N)c(C#N)c45)c(C(F)(F)F)cc23)[C@H]1C (single isomer, unassigned) [Compound 117]"
17,> 6.30,"C=CC(=O)N1CC[C@@H](N(C)c2nc(OC[C@@H]3C[C@@H](OC)CN3C)nc3c(F)c(-c4ccc(F)c5sc(N)c(C#N)c45)c(C(F)(F)F)cc23)[C@H]1C (single isomer, unassigned) [Compound 172]"

row,pIC50,SMILES
1,> 6.30,"C=CC(=O)N1CC[C@@H](N(C)c2nc(OC[C@H]3C[C@@H](OC)CN3C)nc3c(F)c(-c4ccc(F)c5sc(N)c(C#N)c45)c(C(F)(F)F)cc23)[C@H]1C (single isomer, unassigned) [Compound 173]"
2,5.30 to 6.30,"C=CC(=O)N1CC[C@@H](N(C)c2nc(OC[C@@H]3C[C@@H](OC)CN3C)nc3c(F)c(-c4ccc(F)c5sc(N)c(C#N)c45)c(C(F)(F)F)cc23)[C@H]1C (single isomer, unassigned) [Compound 174]"
3,4.70 to 5.30,"C=CC(=O)N1CC[C@@H](N(C)c2nc(OC[C@H]3C[C@@H](OC)CN3C)nc3c(F)c(-c4ccc(F)c5sc(N)c(C#N)c45)c(C(F)(F)F)cc23)[C@H]1C (single isomer, unassigned) [Compound 175]"
4,> 6.30,C=CC(=O)N1CC[C@@H](N(C)c2nc(OC[C@@]34CCCN3C[C@H](F)C4)nc3c(F)c(-c4ccc(F)c5sc(N)c(C#N)c45)ccc23)[C@H]1CC [Compound 4]
5,> 6.30,C=CC(=O)N1CCC(N(C)c2nc(OC[C@@]34CCCN3C[C@H](F)C4)nc3cc(-c4ccc(F)c5sc(N)c(C#N)c45)c(C#N)cc23)[C@H]1CC (stereo partly shown) [Compound 7]
6,> 6.30,C=CC(=O)N1CCC(N(CC)c2nc(OC[C@@]34CCCN3C[C@H](F)C4)nc3c(F)c(-c4ccc(F)c5sc(N)c(C#N)c45)c(C(F)(F)F)cc23)[C@H]1CC (stereo partly shown) [Compound 8]
7,> 6.30,C=CC(=O)N1CCC(N(C)c2nc(OC[C@@H]3CCCN3C)nc3c(F)c(-c4nc(N)cc(C)c4C(F)(F)F)c(Cl)cc23)[C@H]1C (stereo partly shown) [Compound 9]
8,> 6.30,C=CC(=O)N1CCC(N(C)c2nc(OC[C@@]34CCCN3C[C@H](F)C4)nc3c(F)c(-c4nc(N)cc(C)c4C(F)(F)F)c(Cl)cc23)[C@H]1C (stereo partly shown) [Compound 10]
9,> 6.30,C=CC(=O)N1CCC(N(CC)c2nc(OC[C@@]34CCCN3C[C@H](F)C4)nc3c(F)c(-c4ccc(F)c5sc(N)c(C#N)c45)ccc23)[C@H]1CC (stereo partly shown) [Compound 11]
10,> 6.30,C=CC(=O)N1CCC(N(CC)c2nc(OC[C@@]34CCCN3C[C@H](F)C4)nc3c(F)c(-c4ccc(F)c5sc(N)c(C#N)c45)c(Cl)cc23)[C@H]1CC (stereo partly shown) [Compound 12]
11,> 6.30,C=CC(=O)N1CCC(N(CC)c2nc(OC[C@@]34CCCN3C[C@H](F)C4)nc3cc(-c4ccc(F)c5sc(N)c(C#N)c45)c(C#N)cc23)[C@H]1CC (stereo partly shown) [Compound 14]
12,> 6.30,"C=CC(=O)N1CC[C@@H](N(CC)c2nc(OC[C@@]34CCCN3C[C@H](F)C4)nc3c(F)c(-c4ccc(F)c5sc(N)c(C#N)c45)ccc23)[C@H]1C [Compound 17, 4-(4-(((2R,3R)-1-acryloyl-2-methylpyrrolidin-3-yl)(ethyl)amino)-8-fluoro-2-(((2R,7aS)-2-fluorotetrahydro-1H-pyrrolizin-7a(5H)-yl)methoxy)quinazolin-7-yl)-2-amino-7-fluorobenzo[b]thiophene-3-carbonitrile]"
13,> 6.30,C=CC(=O)N1CC[C@@H](N(C)c2nc(OC[C@@]34CCCN3C[C@H](F)C4)nc3c(F)c(-c4ccc(F)c5sc(N)c(C#N)c45)c(C(F)(F)F)cc23)[C@H]1CC [Compound 18]
14,> 6.30,C=CC(=O)N1CC[C@@H](N(C)c2nc(OC[C@@]34CCCN3C[C@H](F)C4)nc3c(F)c(-c4ccc(F)c5sc(N)c(C#N)c45)c(Cl)cc23)[C@H]1CC [Compound 19]
15,> 6.30,C=CC(=O)N1CC[C@@H](N(CC)c2nc(OC[C@@]34CCCN3C[C@H](F)C4)nc3c(F)c(-c4ccc(F)c5sc(N)c(C#N)c45)c(Cl)cc23)[C@H]1CC [Compound 20]
16,5.30 to 6.30,C=CC(=O)N1CC[C@@H](N(C)c2nc(OC[C@@]34CCCN3C[C@H](F)C4)nc3cc(-c4ccc(F)c5sc(N)c(C#N)c45)c(F)cc23)[C@@H]1CC [Compound 22]
17,> 6.30,C=CC(=O)N1CC[C@@H](N(C)c2nc(OC[C@@]34CCCN3C[C@H](F)C4)nc3c(F)c(-c4ccc(F)c5sc(N)c(C#N)c45)ccc23)[C@@H]1CC [Compound 23]
